In US10758484B2, “CED of SN-38-loaded micelles against brain tumor” (Nippon Kayaku Co., Ltd., priority 2014, dated 2020):

Tests used:
[1] = Distribution in normal rat brain after CED, fluorescence microscopy; settings: for local brain tissue damage: free SN-38 infused by CED into normal rat brain
Protocol: Serial coronal tissue sections (20 μm thickness) were prepared using Tissue-Tek Cryo3 (Sakura Finetek USA, Inc., Torrance, Calif.), and frozen sections were examined under a fluorescence microscope, BIOREVO BZ9000 (Keyence, Osaka, Japan), at an excitation wavelength of 377 nm and an emission wavelength 447 nm to evaluate the distribution of NK012 within the tissues. Image data were recorded using BZ-II Analyzer 1.10 software (Keyence).
Animals were euthanized immediately after infusion and serial sections were obtained using a cryostat (20 μm thickness; 1 mm interval).

[2] = test system: 9L orthotopic brain tumor model; assay: Survival study, 9L orthotopic brain tumor model; format: in vivo, rat; settings: rats with 9L tumor, 0.04 mg by single CED on day 5 after implantation
Protocol: Fischer 344 rats were used for the 9L model, and F344/NJc1-rnu/rnu (nude) rats were used for the U87MG model. […] Briefly, 9L and U87MG cells were harvested using trypsin-EDTA following washing once with complete medium, and resuspended in cold phosphate-buffered saline (PBS) for implantation. A cell suspension containing 1×10^4 (9L) or 2×10^5 (U87MG) cells per 10 μl of PBS was used for implantation into the striatum region of rat brains. Under deep isoflurane anesthesia, rats were placed in a small animal stereotactic frame (David Kopf Instruments, Tujunga, Calif.). […] Five microliters of cell suspension were injected at a depth of 4.5 mm from the brain surface. After a wait of 2 minutes, another 5 μl were injected at a depth of 4 mm. After a final wait of 2 minutes, the needle was removed, and the wound was closed with sutures.
Fourteen rats with implanted U87MG tumor cells were randomly divided into two groups on day 5 after tumor cell implantation and treated as follows: (1) CED of PBS (n=7) as a control, and (2) CED of NK012 (n=7). […] All other rats were monitored daily for survival. Survival was compared between the treatment groups using a log-rank test. Estimated survival was expressed as a Kaplan-Meier curve.

## 7-ethyl-10-hydroxy-camptothecine [SN-38]
[1]; CED into normal rat striatum, fluorescence of SN-38
  distribution after CED (description): quite restricted
[1]
  local brain tissue damage: severe local tissue damage
[1]; listed as free SN-38
  local brain tissue damage: increased local brain damage
[2]
  median survival: 28 days
  survival range after tumor cell implantation: 24 to 30 days
